Measured values from patent publication US20210186934A1, “COMPOSITIONS AND USES THEREOF” (LIVERPOOL JOHN MOORES UNIVERSITY, priority 2018, published 2021).

Key:
Type in all cases: cell-based, human
miR-184 [1] = assay: Induction of miR-184 in HPEK by differentiation agents (sqRT-PCR); settings: 1 or 5 days
Experimental: FIG. 1: Induction of miR-184 during Ca^2+-dependent HPEK differentiation. […] Data shown represent means +SEM from 3 independent experiments. Expression was normalized to SNORD72 for miR-184 and GAPDH for IVL. Values are presented relative to 0.07 mM Ca^2+ or DMSO-treated controls;
Human progenitor epidermal keratinocytes (HPEK) were isolated from human foreskin or purchased from CellnTec (Bern, Switzerland). For isolation, tissues were washed with phosphate-buffered saline, trimmed of any subcutaneous fat, connective tissues and blood vessels before digestion with 20 mg/ml dispase (Sigma) at 4° C. overnight with further digestion for 1 hour at room temperature. Thereafter, the epidermis was separated and incubated in 0.5% TrpLE (Thermofisher scientific, Cheshire, UK) for 5 min at 37° C., 5% CO2. Keratinocytes were centrifuged (1200 rpm for 5 min) and re-suspended in CnT-Prime (CellnTec) supplemented with 1% penicillin/streptomycin/amphotericin B (PSA) and IsoBoost supplement CnT-ISO (CellnTec) to enhance isolation efficiency. Culture medium was changed every 2-3 days until cells reached 80% confluence with PSA exclusion from the culture medium after the first passage. Keratinocytes were sub-cultured using CnT-Accutase (CellnTec) and re-cultured at 4×10^3 cells per cm^2. For differentiation, keratinocytes were at 3×10^5/well of a 6-well plate in CnT-Prime and allowed to reach confluence before adjusting the medium to 1.5 mM calcium using CaCl2.
(§1) Total RNA was isolated from cells using the AllPrep DNA/RNA/miRNA Universal kit (Qiagen, Manchester, UK). RNA concentration was determined using a NanoDrop™ 2000c. Complementary DNA (cDNA) was synthesised from 400 ng of RNA using the miScript II RT kit (Qiagen) with HiFlex buffer. PCR amplifications were performed with Quantifast SYBR Green and QuantiTect miRNA/universal primers or RT^2 mRNA primer assays, all from Qiagen. Thermocycling was performed on a Rotor-Gene® as follows: 95° C. for 15 min, followed by 40 cycles of 94° C. for 15 s, 55° C. for 30 s and 70° C. for 30 s. Relative expression of miRNA and mRNA determined using the 2^−ΔΔCT relative quantification method (Livak and Schmittgen, 2001).
(§2) Expression of miR-184 in HPEK was evaluated and maintained in parallel cultures under low (0.07 mM) to sustain proliferation or high (1.5 mM) extracellular Ca^2+ to promote differentiation.

involucrin (IVL) = assay: IVL expression in HPEK treated with differentiation agents (sqRT-PCR); settings: 100 nM, 5 d, normalized to GAPDH
Experimental: FIG. 1: Induction of miR-184 during Ca^2+-dependent HPEK differentiation. (a) HPEKs grown to confluence were treated with high (1.5 mM) Ca^2+, 100 nM 1,25(OH)D3, 100 nM PMA or dimethyl sulfoxide (DMSO) vehicle for 1 or 5 days (d). (b) Upregulation of the HPEK differentiation marker involucrin (IVL) during 5 d exposure to 1.5 mM Ca^2+, 100 nM 1,25(OH)D3 or 100 nM PMA. Data shown represent means +SEM from 3 independent experiments. Expression was normalized to SNORD72 for miR-184 and GAPDH for IVL. Values are presented relative to 0.07 mM Ca^2+ or DMSO-treated controls;
Human progenitor epidermal keratinocytes (HPEK) were isolated from human foreskin or purchased from CellnTec (Bern, Switzerland). […]
Total RNA was isolated from cells using the AllPrep DNA/RNA/miRNA Universal kit (Qiagen, Manchester, UK). RNA concentration was determined using a NanoDrop™ 2000c. […] PCR amplifications were performed with Quantifast SYBR Green and QuantiTect miRNA/universal primers or RT^2 mRNA primer assays, all from Qiagen. […] Relative expression of miRNA and mRNA determined using the 2^−ΔΔCT relative quantification method (Livak and Schmittgen, 2001).
as §2

miR-184 [2] = assay: miR-184 induction in scratched HPEK monolayers; settings: low Ca2+ (0.07 mM), 5 days
Experimental: (§3) FIG. 6: Induction of miR-184 in scratched monolayers. Confluent HPEK monolayers were scratched and cells harvested after 5 days in low (0.07 mM) or high (1.5 mM) Ca^2+ media as indicated. The SOCE blockers Gd^3+ and BTP2 and were added 1 h after scratching and refreshed after day 2. (a-d) miR-184 expression normalized to SNORD72. (c-d) LncRNA UCA1 expression normalised to GAPDH; and
Total RNA was isolated from cells using the AllPrep DNA/RNA/miRNA Universal kit (Qiagen, Manchester, UK). RNA concentration was determined using a NanoDrop™ 2000c. Complementary DNA (cDNA) was synthesised from 400 ng of RNA using the miScript II RT kit (Qiagen) with HiFlex buffer. PCR amplifications were performed with Quantifast SYBR Green and QuantiTect miRNA/universal primers or RT^2 mRNA primer assays, all from Qiagen. […] Relative expression of miRNA and mRNA determined using the 2^−ΔΔCT relative quantification method (Livak and Schmittgen, 2001).
The inventors maintained the HPEK in low Ca^2+ (0.07 mM) medium and allowed them to approach confluence in 6-well plates prior to wounding. Cells were harvested 5 days later and miR-184 expression assessed as described above. […] In contrast, when extracellular Ca^2+ was raised to 1.5 mM to 5 days to evoke HPEK differentiation, only a relatively modest 10-fold rise in miR-184 expression was detected (FIG. 6d). […]

ORAI1 = ORAI1 expression in HPEK; settings: data not shown
Excerpt: To determine whether Ca^2+-dependent induction of miR-184 was associated with SOCE, HPEK were maintained in high Ca^2+ for 5 days in the presence of the SOCE blocker gadolinium (III) Gd^3+ or the pharmacologic ORAI1 inhibitor BTP2. Alternatively, ORAI1 expression was ablated using short-interfering RNA (siRNA) that was transferred into the cells using nucleofection 1 d prior to Ca^2+ elevation.

UCA1 = assay: LncRNA UCA1 induction in scratched HPEK monolayers; settings: 5 days
Experimental: as §3, §1
The long non-coding RNA UCA1 (urothelial carcinoma associated 1) has been identified as a competing endogenous RNA (ceRNA) with four predicted miR-184-binding sites (Zhou et al., 2017). The expression of UCA1 in the HPEK was therefore examined. […]

Compound | effect on miR-184 expression (miR-184 [1]; 100 nM, vs DMSO) | IVL expression (involucrin (IVL)) | effect on scratch-evoked induction of miR-184 (miR-184 [2]) | effect on ORAI1 expression (ORAI1) | reduction of UCA1 induction (UCA1) | further results
C=C1/C(=C\C=C2/CCC[C@]3(C)[C@@H]([C@H](C)CCCC(C)(C)O)CC[C@@H]23)C[C@@H](O)C[C@@H]1O [1, 25-(OH)2D3, 1, 25-dihydroxyvitamin D3] | did not promote miR-184 expression | evoked robust IVL expression | – | – | – | effect on miR-184 expression (miR-184 [1]; 100 nM, vs DMSO, listed as 1, 25-dihydroxyvitamin D3): neither phorbol ester nor 1, 25-dihydroxyvitamin D3 had any effect
Cc1nnsc1C(=O)Nc1ccc(-n2nc(C(F)(F)F)cc2C(F)(F)F)cc1 [BTP2] | – | – | abolished the induction of miR-184 | little effect on ORAI1 expression | around 50% | –
[Cl][Gd]([Cl])[Cl] [Gd^3+, Gadolinium(III) chloride] | – | – | abolished the induction of miR-184 | little effect on ORAI1 expression | around 50% | –
IFNγ: Interferon gamma, reported to trigger keratinocyte differentiation | – | – | – | – | – | effect on miR-184 expression (miR-184 [1]; 10 ng/ml, data not shown): no induction of miR-184 was observed
CCCCCCCCCCCCCC(=O)O[C@@H]1[C@@H](C)[C@@]2(O)[C@@H](C=C(CO)C[C@]3(O)C(=O)C(C)=C[C@@H]23)[C@@H]2C(C)(C)[C@]12OC(C)=O [PMA, phorbol 12-myristate 13-acetate] | did not promote miR-184 expression | evoked robust IVL expression | – | – | – | effect on miR-184 expression (miR-184 [1]; 100 nM, vs DMSO, listed as phorbol ester): neither phorbol ester nor 1, 25-dihydroxyvitamin D3 had any effect
